In ChEMBL document CHEMBL1201862, “PubChem BioAssay data set” (2004):
Active and inactive are the calls of the source.

Assays:
[1] = biological target: NAD-dependent protein deacylase sirtuin-5, mitochondrial (Homo sapiens, UniProt Q9NXA8); assay: SIRT5 desuccinylase inhibitors, dose response, biochemical, fluorescence imaging, cherry-pick, set 5 (AID 720591);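 note: desuccinylation of succinyl peptide AMC substrate read as fluorescence after trypsin release; potency of inhibitors that lower fluorescence and may act on trypsin instead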
NAD-dependent protein deacylase sirtuin-5, mitochondrial, sequence (Q9NXA8 whole entry): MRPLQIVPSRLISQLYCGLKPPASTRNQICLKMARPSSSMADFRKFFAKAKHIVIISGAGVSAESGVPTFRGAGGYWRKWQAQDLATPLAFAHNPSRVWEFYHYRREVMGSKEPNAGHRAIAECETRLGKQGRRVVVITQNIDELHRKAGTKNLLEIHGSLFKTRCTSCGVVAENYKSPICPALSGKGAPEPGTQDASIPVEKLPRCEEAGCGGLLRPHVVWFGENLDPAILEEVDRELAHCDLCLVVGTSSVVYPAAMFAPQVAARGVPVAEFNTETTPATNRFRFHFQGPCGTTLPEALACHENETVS

Protein Tat = biological target: T1, Protein Tat (Human immunodeficiency virus type 1 group M subtype B (isolate HXB2)(HIV-1), UniProt P04608); format: functional;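 note: tat binding to TAR RNA read out by fluorescence polarization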
T1 sequence (P04608 whole entry): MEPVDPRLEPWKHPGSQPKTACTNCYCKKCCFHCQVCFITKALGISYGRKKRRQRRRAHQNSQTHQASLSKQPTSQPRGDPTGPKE

[2] = biological target: Peroxisome proliferator-activated receptor gamma/Nuclear receptor coactivator 3 (Homo sapiens, UniProt P37231); format: functional;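 note: agonist potency for raising coactivator recruitment to the receptor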
[3] = biological target: Peroxisome proliferator-activated receptor gamma/Nuclear receptor coactivator 2 (Homo sapiens, UniProt P37231); format: functional;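 note: agonist potency for raising coactivator recruitment to the receptor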
Peroxisome proliferator-activated receptor gamma/Nuclear receptor coactivator 2, sequence (P37231 whole entry): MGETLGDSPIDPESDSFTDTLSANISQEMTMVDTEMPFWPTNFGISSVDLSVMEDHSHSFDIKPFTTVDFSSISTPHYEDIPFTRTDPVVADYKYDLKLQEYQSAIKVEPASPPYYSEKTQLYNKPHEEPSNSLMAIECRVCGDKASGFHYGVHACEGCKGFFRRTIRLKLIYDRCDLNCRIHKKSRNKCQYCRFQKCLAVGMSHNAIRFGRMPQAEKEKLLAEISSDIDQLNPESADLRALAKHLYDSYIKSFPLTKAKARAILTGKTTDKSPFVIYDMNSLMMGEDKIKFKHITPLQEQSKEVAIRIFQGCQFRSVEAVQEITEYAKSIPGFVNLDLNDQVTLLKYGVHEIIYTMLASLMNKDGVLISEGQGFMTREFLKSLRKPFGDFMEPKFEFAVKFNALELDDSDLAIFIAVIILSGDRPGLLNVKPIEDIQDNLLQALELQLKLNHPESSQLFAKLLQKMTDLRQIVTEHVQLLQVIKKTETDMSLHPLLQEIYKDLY
Peroxisome proliferator-activated receptor gamma/Nuclear receptor coactivator 2, sequence (Q15596 whole entry, further chain): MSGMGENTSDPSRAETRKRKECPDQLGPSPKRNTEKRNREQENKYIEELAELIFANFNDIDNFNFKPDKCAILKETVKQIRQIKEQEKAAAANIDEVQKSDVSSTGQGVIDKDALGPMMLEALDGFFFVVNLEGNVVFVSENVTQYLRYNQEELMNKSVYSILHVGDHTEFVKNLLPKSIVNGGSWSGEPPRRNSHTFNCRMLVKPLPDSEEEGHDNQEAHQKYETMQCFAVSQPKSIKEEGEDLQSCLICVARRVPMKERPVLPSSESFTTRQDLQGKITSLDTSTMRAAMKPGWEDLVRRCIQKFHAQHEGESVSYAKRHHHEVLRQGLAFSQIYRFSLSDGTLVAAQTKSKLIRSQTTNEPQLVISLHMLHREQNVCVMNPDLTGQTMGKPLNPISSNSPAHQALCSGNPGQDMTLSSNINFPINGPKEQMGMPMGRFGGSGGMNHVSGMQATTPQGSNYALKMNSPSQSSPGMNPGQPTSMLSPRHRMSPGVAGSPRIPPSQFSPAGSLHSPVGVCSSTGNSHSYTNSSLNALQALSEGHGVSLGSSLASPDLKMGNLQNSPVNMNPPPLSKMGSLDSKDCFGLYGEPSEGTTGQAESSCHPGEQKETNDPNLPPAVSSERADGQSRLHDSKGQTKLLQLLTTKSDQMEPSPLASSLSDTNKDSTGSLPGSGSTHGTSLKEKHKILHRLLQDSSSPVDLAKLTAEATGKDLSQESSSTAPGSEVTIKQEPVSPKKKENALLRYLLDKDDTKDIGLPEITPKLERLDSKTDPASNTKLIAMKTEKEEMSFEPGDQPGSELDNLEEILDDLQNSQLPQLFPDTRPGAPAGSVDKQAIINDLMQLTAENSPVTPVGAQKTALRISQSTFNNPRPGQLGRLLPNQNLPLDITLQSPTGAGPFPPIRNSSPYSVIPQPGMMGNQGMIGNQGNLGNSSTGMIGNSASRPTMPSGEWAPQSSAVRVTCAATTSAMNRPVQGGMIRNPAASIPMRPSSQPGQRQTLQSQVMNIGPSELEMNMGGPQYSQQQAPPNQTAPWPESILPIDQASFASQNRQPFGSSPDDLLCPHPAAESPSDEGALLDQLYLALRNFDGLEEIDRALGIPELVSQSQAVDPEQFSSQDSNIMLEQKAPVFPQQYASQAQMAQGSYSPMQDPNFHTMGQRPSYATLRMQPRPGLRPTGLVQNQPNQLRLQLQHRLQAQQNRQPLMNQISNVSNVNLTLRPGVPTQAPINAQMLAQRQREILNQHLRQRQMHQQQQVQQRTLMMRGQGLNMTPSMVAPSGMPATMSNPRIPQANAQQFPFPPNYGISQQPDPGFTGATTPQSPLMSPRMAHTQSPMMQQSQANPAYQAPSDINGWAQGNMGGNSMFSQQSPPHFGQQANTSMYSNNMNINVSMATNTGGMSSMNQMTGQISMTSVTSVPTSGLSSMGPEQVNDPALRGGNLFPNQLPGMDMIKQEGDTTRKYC

[4] = biological target: Peroxisome proliferator-activated receptor gamma/Nuclear receptor coactivator 1 (Homo sapiens, UniProt P37231); format: functional;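 note: agonist potency as compounds enhance coactivator SRC-1 recruitment to PPARgamma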
Peroxisome proliferator-activated receptor gamma/Nuclear receptor coactivator 1, sequence (P37231 whole entry): as the sequence (P37231 whole entry) above
Peroxisome proliferator-activated receptor gamma/Nuclear receptor coactivator 1, sequence (Q15788 whole entry, further chain): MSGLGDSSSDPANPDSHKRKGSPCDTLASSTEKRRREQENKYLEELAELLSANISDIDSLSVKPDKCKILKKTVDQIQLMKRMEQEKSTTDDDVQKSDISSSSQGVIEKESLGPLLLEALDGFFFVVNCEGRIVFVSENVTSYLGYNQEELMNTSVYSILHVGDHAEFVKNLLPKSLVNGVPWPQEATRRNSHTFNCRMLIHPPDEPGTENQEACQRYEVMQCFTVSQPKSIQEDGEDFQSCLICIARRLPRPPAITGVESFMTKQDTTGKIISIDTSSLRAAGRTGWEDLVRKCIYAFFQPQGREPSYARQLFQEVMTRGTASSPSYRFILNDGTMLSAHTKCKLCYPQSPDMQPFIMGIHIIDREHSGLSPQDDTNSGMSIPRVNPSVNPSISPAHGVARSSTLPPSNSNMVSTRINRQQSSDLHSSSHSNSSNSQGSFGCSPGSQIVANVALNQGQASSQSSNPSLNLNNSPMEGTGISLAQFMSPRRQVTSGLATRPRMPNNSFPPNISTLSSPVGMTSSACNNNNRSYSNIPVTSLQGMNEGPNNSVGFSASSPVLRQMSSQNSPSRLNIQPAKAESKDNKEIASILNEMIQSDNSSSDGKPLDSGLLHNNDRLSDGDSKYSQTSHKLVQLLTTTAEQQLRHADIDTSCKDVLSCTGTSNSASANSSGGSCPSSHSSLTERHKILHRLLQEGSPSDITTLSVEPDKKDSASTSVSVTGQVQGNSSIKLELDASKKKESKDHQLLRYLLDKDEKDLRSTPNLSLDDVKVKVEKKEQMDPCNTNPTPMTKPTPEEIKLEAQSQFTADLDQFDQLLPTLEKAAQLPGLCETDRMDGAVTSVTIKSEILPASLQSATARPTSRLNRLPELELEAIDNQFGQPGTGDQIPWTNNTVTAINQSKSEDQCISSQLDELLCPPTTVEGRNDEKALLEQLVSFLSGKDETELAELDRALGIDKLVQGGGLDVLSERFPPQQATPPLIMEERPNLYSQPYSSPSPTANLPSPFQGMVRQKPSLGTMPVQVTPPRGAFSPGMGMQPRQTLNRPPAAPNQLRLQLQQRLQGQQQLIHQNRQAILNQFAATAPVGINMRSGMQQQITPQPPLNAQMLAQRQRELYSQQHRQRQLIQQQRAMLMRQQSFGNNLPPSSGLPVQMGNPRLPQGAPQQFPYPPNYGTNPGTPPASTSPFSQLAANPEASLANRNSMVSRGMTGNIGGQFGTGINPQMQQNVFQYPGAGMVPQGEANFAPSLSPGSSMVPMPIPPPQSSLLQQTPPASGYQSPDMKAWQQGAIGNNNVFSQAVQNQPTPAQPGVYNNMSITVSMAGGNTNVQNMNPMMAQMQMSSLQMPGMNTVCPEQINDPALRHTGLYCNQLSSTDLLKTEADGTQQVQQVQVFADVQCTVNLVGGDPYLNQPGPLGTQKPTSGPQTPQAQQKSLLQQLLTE

INS1 = assay: beta cell apoptosis inhibitors, cytokine rescue, dose response, luminescence, retest (AID 449756); format: functional, cell-based; settings: Rattus norvegicus;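 note: cell death triggered by IL-1 beta plus TNF-alpha plus IFN-gamma mixture; protective hits raise ATP signal compared with cytokine alone wells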
[5] = biological target: Neurotensin receptor type 1 (Homo sapiens, UniProt P30989); format: functional;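 note: Image-based confirmatory dose-response assay measuring agonist activity at NTR1; NTR1-expressing U2OS osteosarcoma cells imaged for beta-arrestin GFP spot formation; agonist potency where compounds increase beta-arrestin recruitment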
Neurotensin receptor type 1, sequence (P30989 whole entry): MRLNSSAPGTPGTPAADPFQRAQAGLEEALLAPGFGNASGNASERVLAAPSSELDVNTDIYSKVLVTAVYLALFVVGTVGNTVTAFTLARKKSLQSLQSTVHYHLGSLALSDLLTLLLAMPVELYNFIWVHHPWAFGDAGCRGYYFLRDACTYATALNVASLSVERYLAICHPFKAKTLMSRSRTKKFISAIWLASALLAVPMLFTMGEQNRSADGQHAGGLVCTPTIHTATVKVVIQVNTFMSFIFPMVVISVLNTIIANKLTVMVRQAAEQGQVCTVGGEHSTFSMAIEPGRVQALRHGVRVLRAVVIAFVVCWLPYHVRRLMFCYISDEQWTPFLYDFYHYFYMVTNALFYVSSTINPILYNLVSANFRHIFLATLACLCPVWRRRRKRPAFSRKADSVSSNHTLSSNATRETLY

[6] = Luminescence Cell-Based Dose Retest to Confirm Inhibitors of Cancer Stem Cells. [Related pubchem assays (depositor defined):AID2717, AID2721]; format: functional; settings: Homo sapiens
[7] = HepG2 cell cytotoxicity, dose response, cytotoxicity control for Shn3 inhibitor project, CellTiter-Glo, cherry-picked (AID 624134); format: functional, cell-based
[8] = Shn3 3'UTR reporter inhibitors, dose response, cell-based, Clone20 osteoblasts, firefly luciferase, cherry-picked (AID 624132); format: functional;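 note: firefly luciferase luminescence from reporter carrying the Shn3 3'UTR in osteoblasts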
[9] = control 3'UTR Renilla luciferase suppression, dose response, counter-screen for Shn3 inhibitor project, cell-based, Clone20-Shn3RL, cherry-picked (AID 624133); format: functional
[10] = biological target: Eukaryotic translation initiation factor 4E (Mus musculus, UniProt P63073); assay: eIF4E–eIF4G protein interaction inhibitors, dose response, biochemical, TR-FRET (AID 855); format: functional;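 note: potency for disrupting eIF4E binding to eIF4GI seen as loss of FRET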
Eukaryotic translation initiation factor 4E, sequence (P63073 whole entry): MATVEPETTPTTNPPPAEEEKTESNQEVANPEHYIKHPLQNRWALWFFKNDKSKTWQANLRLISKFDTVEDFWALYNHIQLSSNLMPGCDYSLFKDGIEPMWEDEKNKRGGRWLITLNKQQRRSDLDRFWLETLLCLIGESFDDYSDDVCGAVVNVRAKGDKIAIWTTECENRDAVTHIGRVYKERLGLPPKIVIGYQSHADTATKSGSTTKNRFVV

[11] = half-maximal inhibitory concentration for glucagon-like peptide-1 release, STC-1 cell line, dose-response (AID 1117345); format: functional, cell-based
[12] = inhibitors of intracellular T. cruzi replication, confirmation, NIH3T3 host cells, beta-gal luminescence (AID 2044); format: functional, cell-based;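 note: intracellular parasites grown in NIH/3T3 mouse fibroblasts as host cells; luminescent beta-galactosidase reporter signal from transgenic T. cruzi replicating inside host cells; inhibitors lower the luminescence signal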
[13] = Glucagon-like peptide 1 release potency, NCI-H716 cell line, dose-response, half-maximal inhibitory concentration (AID 1117344); format: functional, cell-based
[14] = test system: Streptococcus sp. 'group A'; assay: growth inhibition of control SK(-) GAS strain, dose response, counter-screen for streptokinase expression inhibitor project, luminescence, kanamycin, BacTiterGlo, confirmation (AID 1900); format: functional, organism-based
[15] = microbe, parasite or virus in culture; format: functional; settings: Mycobacterium tuberculosis
Streptococcus = assay: Group A Streptococcus viability loss, dose response, counter-screen for streptokinase expression inhibitor project, luminescence, BacTiterGlo (AID 1915); format: functional, organism-based;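 note: potency for reduction of bacterial viability or growth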
[16] = Luminescence Cell-Based Dose Confirmation HTS to Identify Activators of 5'UTR Stem-Loop Driven Alpha-Synuclein mRNA Translation in H4 Neuroglioblastoma Cells. [Related pubchem assays: 1829 (Project Summary), 1814 (Primary HTS)]; format: functional
[17] = cytotoxicity toward NIH3T3 fibroblasts, dose response, counter-screen, cell-based, ATP luminescence, mouse fibroblasts (AID 2010); format: functional;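 note: cells exposed to compound for about 90 hours before reading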
[18] = Luminescence Cell-Based Dose Response HTS to Identify Activators of Luciferase Translation or Activity in H4 […] Cells. [Related pubchem assays: 1829 (Project Summary), 1814 (Primary HTS)]; format: functional
H4 = assay: Luminescence Cell-Based Dose Response HTS to Identify Activators of 5'UTR Stem-Loop Driven Prion Protein mRNA Translation in H4 Neuroglioblastoma Cells. [Related pubchem assays: 1829 (Project Summary), 1814 (Primary HTS)]; format: functional; settings: Homo sapiens

In the case of `CCN(CC(=O)Nc1ccccc1C(F)(F)F)C(=O)c1ccc2c(=O)n3c(nc2c1)CCC3`, the AC50 [1] is reported as > 30 µM (inactive).
With `CSc1oc(-c2ccco2)nc1S(=O)(=O)c1ccccc1` the IC50 (Protein Tat) was > 100 µM (active).
For `Cc1ccc(NC(=O)CSc2nnc(-c3ccc(S(=O)(=O)N4CCCC4)cc3)o2)cc1C`, the EC50 [2] was > 79.4 µM (not active), the EC50 [3] was 39.8 µM (not active) and the EC50 [4] was 81.2 µM (not active).
For `Cc1cc(F)ccc1S(=O)(=O)Nc1ccccc1C(=O)Nc1ccccc1-c1nc2ccccc2[nH]1`, the AC50 (INS1) was 6.59 µM (active), the EC50 [5] was 29 µM (inactive) and the AC50 [6] was 2.02 µM (active). The AC50 [7] was 23.2 µM (active), the AC50 [8] was 12.1 µM (active) and the AC50 [9] was 9.69 µM (active).
For `CC(C)CC(=O)N1CCN(Cc2cccc(F)c2)CC1`, the IC50 [10] was > 64 µM (inactive).
For `Cc1ccc(CCN2CC(C(=O)NCCN(C)C)CC2=O)cc1` (stereo not given), the AC50 [1] was > 30 µM (inactive).
In the case of `C[C@H](CO)N1C[C@H](C)[C@H](CN(C)C(=O)Nc2cccc3ccccc23)OCc2cnnn2CCCC1=O`, the AC50 [1] is reported as 2.28 µM (active).
For `O=C(N/N=C/c1ccc(OC(=O)c2ccccc2Cl)cc1)c1ccc(O)cc1`, the EC50 [5] was 17.1 µM (active).
With `C#C[C@]1(O)CC[C@H]2[C@@H]3CCc4cc(OC5CCCC5)ccc4[C@H]3CC[C@@]21C` [QUINESTROL] the IC50 [11] was > 40 µM (inactive), the EC50 [12] was 4.43 µM (active) and the IC50 [13] was 17.6 µM (inactive). For the same compound, the EC50 [14] was 1.94 µM (active), the CC50 [15] was > 40 µM (active) and the EC50 (Streptococcus) was 4.17 µM (active). The EC50 [16] was > 120 µM (not active), the EC50 [17] was > 60 µM (not active) and the EC50 [18] was > 120 µM (not active). The EC50 (H4) was > 120 µM (not active).
